Measurements published in ChEMBL document CHEMBL1201862, “PubChem BioAssay data set” (2004).
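Growth conditions: 96-well plates. Treatment: test compound, 48 hours, 5 concentrations. Analysis: linear interpolation between bracketing concentrations; unreached endpoints set to highest concentration. GI50 marks 50% less growth.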 Active and inactive are the calls of the source. Cut-off read from the data, not from the text of the source: active = GI50 up to about 1.1 µM and inactive = higher.

What was measured:
Assay in all cases: NCI anticancer screen, dose series, 48 h
SNB-78 = system: SNB-78
DLD-1 = system: DLD-1
M19-MEL = system: M19-MEL
LXFL 529 = system: LXFL 529
DMS-114 = system: DMS-114
DMS-273 = system: DMS-273
XF498 = system: XF498
HOP-18 = system: HOP-18
RXF 631 = system: RXF 631

Row | Structure (SMILES) | GI50 (SNB-78) | GI50 (DLD-1) | GI50 (M19-MEL) | GI50 (LXFL 529) | GI50 (DMS-114) | GI50 (DMS-273) | GI50 (XF498) | GI50 (HOP-18) | GI50 (RXF 631)
1 | O=C(NC(=O)c1cn(CCN2CCNCC2)c(=O)[nH]c1=O)OCc1ccccc1 | > 100 µM (inactive) | > 100 µM (inactive) | > 100 µM (inactive) | > 100 µM (inactive) | 63.5 µM (inactive) | – | – | – | –
2 | CCOC(=O)c1ccn2c(c1)c(C#N)c1nc3ccccc3nc12 | 15.5 µM (inactive) | 27.4 µM (inactive) | 61.8 µM (inactive) | 31.6 µM (inactive) | 52.2 µM (inactive) | 37.2 µM (inactive) | 33.7 µM (inactive) | – | –
3 | O=[N+]([O-])c1cccc2nc3ccccc3c(NCCO)c12 | 0.00533 µM (active) | 0.000277 µM (active) | 0.0021 µM (active) | 0.00285 µM (active) | 0.00316 µM (active) | 0.00918 µM (active) | 0.00135 µM (active) | 0.0056 µM (active) | –
4 | CCNCC(=O)O[C@]1(CC)C(=O)OCc2c1cc1n(c2=O)Cc2cc3ccccc3nc2-1 | 5.11 µM (inactive) | 2.37 µM (inactive) | 0.394 µM (active) | 4.73 µM (inactive) | 0.0857 µM (active) | 0.0119 µM (active) | 0.364 µM (active) | 0.44 µM (active) | –
5 | CC(=O)OC1CC2C(C)(C)C(=O)C=C[C@]2(C)C2CCC3(C)C(=CC(=O)C3c3ccoc3)[C@]12C (stereo partly specified) | 31.4 µM (inactive) | 12.4 µM (inactive) | 16 µM (inactive) | 24 µM (inactive) | 10 µM (inactive) | – | 25.8 µM (inactive) | 18.4 µM (inactive) | –
6 | O=P(NCCCO)(OCc1ccccc1)N(CCCl)CCCl (stereo unspecified) | > 100 µM (inactive) | > 31.6 µM (inactive) | > 100 µM (inactive) | – | – | > 100 µM (inactive) | > 100 µM (inactive) | > 39.5 µM (inactive) | –
7 | COc1ccc(/C=C2\C(=O)NC(=O)c3ccccc32)cc1OC | 6.58 µM (inactive) | 4.81 µM (inactive) | 41 µM (inactive) | – | 5 µM (inactive) | 21.4 µM (inactive) | 6.71 µM (inactive) | > 100 µM (inactive) | –
8 | COC(=O)C(=Cc1cc(OC)c(OC)c(OC)c1-c1cc2c(cc1C(C)=O)OCO2)C(=O)OC | – | 26.1 µM (inactive) | 34.6 µM (inactive) | 33.8 µM (inactive) | 37.5 µM (inactive) | 30.7 µM (inactive) | 27.4 µM (inactive) | 52.6 µM (inactive) | –
9 | CC(=O)NNc1nc(C)c(C(=O)NNC(=O)C(=O)Nc2c(C)cccc2C(C)C)s1 | 27.9 µM (inactive) | – | > 100 µM (inactive) | 46.1 µM (inactive) | 86.7 µM (inactive) | > 100 µM (inactive) | > 100 µM (inactive) | – | –
10 | COCC1N=C(c2cc(OC)c(OC)c(OC)c2-c2cc3c(cc2[C@H](C)O)OCO3)O[C@H]1c1ccccc1 (stereo partly specified) | 61 µM (inactive) | 83.6 µM (inactive) | 37.1 µM (inactive) | 37.7 µM (inactive) | – | 37.2 µM (inactive) | – | 88.9 µM (inactive) | > 100 µM (inactive)
11 | CC(=O)Oc1cc2c(cc1OC(C)=O)OCC(c1ccc(C)cc1)C2 (stereo unspecified) | 21.6 µM (inactive) | 21.8 µM (inactive) | 9.29 µM (inactive) | – | 4.94 µM (inactive) | 19.4 µM (inactive) | 15.4 µM (inactive) | 26.9 µM (inactive) | –
12 | Cc1ccccc1/N=N/C(C(=O)c1ccccc1)C(=O)c1ccccc1 | – | 30.8 µM (inactive) | 17.5 µM (inactive) | 13.1 µM (inactive) | 19.4 µM (inactive) | 18.3 µM (inactive) | 19.5 µM (inactive) | – | 34.9 µM (inactive)
13 | CCOc1ccc(/N=N/c2ccc3oc(=O)c(/C(C)=N\NC(=O)CC(=O)Nc4ccc(Cl)cc4)cc3c2)cc1 | 27.9 µM (inactive) | 12.6 µM (inactive) | 27.9 µM (inactive) | 10.8 µM (inactive) | 15.9 µM (inactive) | 16.3 µM (inactive) | 2.07 µM (inactive) | – | 20 µM (inactive)
14 | c1cc2c3c(c1)c1cc4c(cc1c[n+]3CC2)OCO4 [ANHYDROLYCORINIUM CHLORIDE] | 4.06 µM (inactive) | 8.83 µM (inactive) | 1.33 µM (inactive) | – | 2.45 µM (inactive) | 4.42 µM (inactive) | 4.14 µM (inactive) | 9.79 µM (inactive) | –
15 | C[C@]12CCC(=O)C=C1CC[C@@H]1[C@@H]2[C@@H](O)C[C@@]2(C)[C@H]1CC[C@]2(O)C(=O)COC(=O)CCC1CCCC1 [HYDROCORTISONE CYPIONATE] | > 100 µM (inactive) | > 100 µM (inactive) | > 100 µM (inactive) | > 100 µM (inactive) | > 100 µM (inactive) | 61.1 µM (inactive) | > 100 µM (inactive) | – | –
16 | N=C(N)SCc1cccc([N+](=O)[O-])c1 | 35.6 µM (inactive) | 27.2 µM (inactive) | 35.3 µM (inactive) | – | 23.6 µM (inactive) | 30.2 µM (inactive) | 25.1 µM (inactive) | 26.9 µM (inactive) | –
17 | Cc1ccccc1NC(=O)c1c(C)oc2c1C(=O)c1ccccc1C2=O | 1.86 µM (inactive) | 33 µM (inactive) | 8.63 µM (inactive) | 21.5 µM (inactive) | 24.7 µM (inactive) | 42 µM (inactive) | 32.2 µM (inactive) | – | –
18 | Cc1ccc(C(=O)C(C)N)cc1C (stereo unspecified) | – | > 100 µM (inactive) | > 100 µM (inactive) | > 100 µM (inactive) | > 100 µM (inactive) | – | 41.5 µM (inactive) | – | > 100 µM (inactive)
19 | COc1cc2c(c3oc(-c4ccc5c(c4)OCO5)c(O)c(=O)c13)CCC(C)(C)O2 | > 100 µM (inactive) | > 100 µM (inactive) | > 100 µM (inactive) | 22.9 µM (inactive) | > 100 µM (inactive) | > 100 µM (inactive) | – | > 100 µM (inactive) | > 100 µM (inactive)
20 | O=C(C(O)c1cn(Cc2ccccc2)c2ccccc12)N1CCCCC1 (stereo unspecified) | > 10 µM (inactive) | > 100 µM (inactive) | > 100 µM (inactive) | 79.6 µM (inactive) | > 100 µM (inactive) | > 100 µM (inactive) | 93.1 µM (inactive) | 24.1 µM (inactive) | –
21 | COc1c(O)c(O)cc2c1-c1ccc(OC)c(=O)cc1C(NC(C)=O)CC2 (stereo unspecified) | 3.12 µM (inactive) | 4.71 µM (inactive) | 6.12 µM (inactive) | 3.86 µM (inactive) | 2.49 µM (inactive) | 3.27 µM (inactive) | 5.38 µM (inactive) | > 100 µM (inactive) | 14.9 µM (inactive)
22 | CC(=O)OC1COC(N2C(=O)/C(=N\NC(N)=S)c3cc(Br)ccc32)C(OC(C)=O)C1OC(C)=O (stereo unspecified) | 53.5 µM (inactive) | 42.2 µM (inactive) | 53.5 µM (inactive) | 25.5 µM (inactive) | 19.9 µM (inactive) | 38.5 µM (inactive) | 37.1 µM (inactive) | > 100 µM (inactive) | –
23 | O=C1C=C(Nc2ccc(S(=O)(=O)Nc3ncccn3)cc2)c2ccccc2C1=O | 28.8 µM (inactive) | 20.7 µM (inactive) | 15.5 µM (inactive) | 23.2 µM (inactive) | – | 27.7 µM (inactive) | – | 26.3 µM (inactive) | 22.3 µM (inactive)
24 | CN1CCC23c4ccccc4NC1C21CCN(C)C3Nc2ccccc21 | 151 µM (inactive) | > 375 µM (inactive) | > 375 µM (inactive) | – | > 375 µM (inactive) | > 375 µM (inactive) | – | 343 µM (inactive) | –
25 | NC(=O)N/N=C/C(/C=N/NC(N)=O)[N+](=O)[O-] | – | > 100 µM (inactive) | > 100 µM (inactive) | > 100 µM (inactive) | > 100 µM (inactive) | – | > 100 µM (inactive) | – | > 100 µM (inactive)
26 | CCCCCCCCCCCCCCCCCCOCC(O)CO (stereo unspecified) [BATILOL] | > 25 µM (inactive) | > 25 µM (inactive) | 12 µM (inactive) | – | 18 µM (inactive) | > 5.93 µM (inactive) | 15.5 µM (inactive) | 0.61 µM (active) | –
27 | O=C(Cc1cc[n+]([O-])cc1)C(=O)Nc1cc(Cl)c(Cl)cc1Cl | > 100 µM (inactive) | > 100 µM (inactive) | > 100 µM (inactive) | > 100 µM (inactive) | > 100 µM (inactive) | – | – | – | > 100 µM (inactive)
28 | CCCN(CCCC(NC(C)=O)C(=O)NCc1ccccc1)C(=O)NCCCl (stereo unspecified) | – | > 100 µM (inactive) | > 100 µM (inactive) | > 100 µM (inactive) | > 100 µM (inactive) | > 100 µM (inactive) | > 100 µM (inactive) | > 100 µM (inactive) | > 100 µM (inactive)
29 | COC(=O)C1=CO[C@@H](OC2CC(CO)C(O)C(O)C2O)[C@@H]2[C@@H](C)[C@@H](OC(=O)/C=C/c3ccccc3)[C@@H](O)[C@H]12.COC(=O)C1=CO[C@@H](OC2CC(CO)C(O)C(O)C2O)[C@@H]2[C@@H](C)[C@@H](OC(=O)c3ccccc3)[C@@H](O)[C@H]12 (stereo partly specified) | – | > 100 µM (inactive) | > 100 µM (inactive) | > 100 µM (inactive) | > 100 µM (inactive) | – | > 100 µM (inactive) | > 100 µM (inactive) | –
30 | O=C1/C(=C/c2cccc([N+](=O)[O-])c2)COc2ccc(Br)cc21 | > 100 µM (inactive) | > 100 µM (inactive) | > 100 µM (inactive) | > 100 µM (inactive) | 65.9 µM (inactive) | 45.2 µM (inactive) | > 100 µM (inactive) | > 100 µM (inactive) | –
